Assay results reported in paper PMC7525318, “Identification of Six Flavonoids as Novel Cellular Antioxidants and Their Structure-Activity Relationship” (Oxidative Medicine and Cellular Longevity, 2020).

Assays:
[1] = system: HepG2 cells; test: Cellular antioxidant activity (CAA) assay; type: cell-based; conditions: DCFH-DA 25 μM, ABAP 600 μM
Experimental: The CAA assay was tested as described previously. 6 × 10^4 cells/well of HepG2 cells were seeded at a 96-well microplate with 100 μL of growth medium/well. […] Then, the cells were washed with PBS and treated with 100 μL of 600 μM ABAP (dissolved in HBSS), and the 96-well microplate was immediately placed into an Infinite SpectraMax i3x Multi-Mode Detection plate-reader at 37°C. […]

[2] = DPPH radical scavenging activity; conditions: 0.1 mM DPPH in methanol, 37°C, 30 min
Experimental: This assay was conducted as previously described by Wen et al. with some modifications. DPPH was freshly prepared in methanol at a concentration of 0.1 mM. The solution (20 μL) containing the tested compounds with different concentrations was added into the DPPH solution (180 μL) in the 96-well plates. […] The IC50 value was calculated on the scavenging activity against DPPH radical.

[3] = Oxygen radical antioxidant capacity (ORAC) assay; conditions: Trolox equivalents; AAPH, fluorescein
Experimental: The ORAC assay was evaluated as previously described by Cao et al. with some modifications. 50 μL of samples or Trolox with different concentrations and the fluorescein solution was added to a 96-well microplate, which was incubated at 37°C for 10 min. […] The ORAC values were calculated by the regression equation between the Trolox concentration and the net area under the curve (expressed as μmol Trolox eq/μmol sample).

Row | Compound | EC50 ([1]; Homo sapiens) [µM] | IC50 [2] [µM] | ORAC values [3] [μmol TE/μmol] | EC50 [1] [µM]
1 | COc1ccc(-c2cc(=O)c3c(OC)c(OC)c(OC)c(OC)c3o2)cc1 [compound 19, Tangeretin] | > 200 | > 200 | – | –
2 | O=c1c(O)c(-c2ccc(O)c(O)c2)oc2cc(O)ccc12 [compound 35, Fisetin] | > 200 | 25.2 ± 0.62 | 5.36 ± 0.21 | –
3 | OC[C@H]1O[C@@H](Oc2cc3c(O)cc(O)cc3[o+]c2-c2ccc(O)c(O)c2)[C@H](O)[C@@H](O)[C@@H]1O.[Cl-] [compound 54, Cyanidin-3-O-glucoside chloride] | – | > 200 | 4.63 ± 0.14 | 43.8
4 | O=c1c(O[C@@H]2O[C@H](CO)[C@H](O)[C@H](O)[C@H]2O)c(-c2ccc(O)cc2)oc2cc(O)cc(O)c12 [compound 11, Trifolin] | > 200 | 45.1 ± 2.12 | 2.06 ± 0.01 | –
5 | O=c1cc(-c2ccc(O)cc2)oc2c([C@@H]3O[C@H](CO)[C@@H](O)[C@H](O)[C@H]3O)c(O)cc(O)c12 [compound 30, Vitexin] | > 200 | > 200 | 6.80 ± 0.42 | –
6 | O=c1cc(-c2ccccc2)oc2cc(O)c(O)c(O)c12 [compound 21, Baicalein] | 42.5 ± 0.24 | > 200 | – | –
7 | O=C(CCc1ccc(O)cc1)c1c(O)cc(O)cc1O[C@@H]1O[C@H](CO)[C@@H](O)[C@H](O)[C@H]1O [compound 49, Phlorizin] | > 200 | > 200 | 6.43 ± 0.14 | –
8 | O=c1c(O)c(-c2ccc(O)cc2O)oc2cc(O)cc(O)c12 [compound 4, Morin] | 15.2 ± 0.32 | > 200 | 5.98 ± 0.01 | –
9 | O=c1cc(-c2ccc(O)cc2)oc2cc(O)cc(O)c12 [compound 22, Apigenin] | > 200 | > 200 | 4.27 ± 0.02 | –
10 | O=c1c(O)c(-c2cc(O)c(O)c(O)c2)oc2cc(O)cc(O)c12 [compound 18, Myricetin] | 26.7 ± 1.04 | 21.3 ± 1.33 | 6.64 ± 0.03 | –
11 | Oc1cc(O)c2c(c1)O[C@H](c1ccc(O)c(O)c1)[C@H](O)C2 [compound 58, Epicatechin] | > 200 | 96.03 ± 0.13 | 4.83 ± 0.13 | –
12 | O=c1cc(-c2ccccc2)oc2cc(O)cc(O)c12 [compound 20, Chrysin] | > 200 | > 200 | – | –
13 | O=c1c(O)c(-c2ccccc2)oc2cc(O)cc(O)c12 [compound 34, Galangin] | 31.2 ± 0.86 | > 200 | – | –
14 | Oc1cc(O)c2cc(O)c(-c3cc(O)c(O)c(O)c3)[o+]c2c1 [compound 52, Delphinidin chloride] | 24.91 ± 0.12 | 36.8 ± 4.26 | 5.02 ± 0.02 | –
15 | O=c1c(O)c(-c2ccc(O[C@@H]3O[C@H](CO)[C@@H](O)[C@H](O)[C@H]3O)c(O)c2)oc2cc(O)cc(O)c12 [compound 17, Spiraeoside] | > 200 | > 200 | – | –
16 | Quercetin-3-O-rhamnoside [compound 27] | – | 47.7 | – | 22.8
17 | O=c1c(O)c(-c2ccc(O)cc2)oc2cc(O)cc(O)c12 [compound 6, Kaempferol] | 11 ± 0.25 | > 200 | 4.17 ± 0.06 | –
18 | O=c1cc(-c2ccc(O)c(O)c2)oc2c([C@@H]3O[C@H](CO)[C@@H](O)[C@H](O)[C@H]3O)c(O)cc(O)c12 [compound 31, Orientin] | > 200 | > 200 | – | –
19 | COc1ccc([C@@H]2CC(=O)c3c(O)cc(O[C@@H]4O[C@H](CO[C@@H]5O[C@@H](C)[C@H](O)[C@@H](O)[C@H]5O)[C@@H](O)[C@H](O)[C@H]4O)cc3O2)cc1O [compound 44, Hesperidin] | – | > 200 | 6.52 ± 0.15 | > 200
20 | Myricitrin [compound 9] | – | 50.9 ± 2.14 | – | > 200
21 | C[C@@H]1O[C@@H](OC[C@H]2O[C@@H](Oc3cc(O)c4c(c3)O[C@H](c3ccc(O)cc3)CC4=O)[C@H](O)[C@@H](O)[C@@H]2O)[C@H](O)[C@H](O)[C@H]1O [compound 42, Narirutin] | > 200 | > 200 | – | –
22 | Oc1cc(O)c2cc(O)c(-c3ccc(O)c(O)c3)[o+]c2c1 [compound 51, Cyanidin chloride] | 19.16 ± 0.16 | 70.8 ± 2.31 | 5.71 ± 0.03 | –
23 | O=C(/C=C/c1ccc(O)cc1)c1ccc(O)cc1O [compound 50, Isoliquiritigenin] | > 200 | – | – | –
